Experimental data published in patent US20140350050A1, “PYRIDINE COMPOUNDS AS INHIBITORS OF KINASE” (TELIGENE LTD., priority 2011, published 2014).
Like-named read-outs stand apart in the source and are kept apart here.

What was measured:
ALK kinase = ALK kinase (Homo sapiens, UniProt Q9UM73); assay: ALK kinase assay; type: biochemical
Protocol: An in vitro assay which determines the ability of a test compound to inhibit ALK kinase. a) kinase-tagged T7 phage strains were prepared in an E. coli host derived from the BL21 strain. E. coli were grown to log-phase and infected with T7 phage and incubated with shaking at 32° C. until lysis. The lysates were centrifuged and filtered to remove cell debris. The remaining kinases were produced in HEK-293 cells and subsequently tagged with DNA for qPCR detection. […] The liganded beads were blocked with excess biotin and washed with blocking buffer (SeaBlock (Pierce), 1% BSA, 0.05% Tween 20, 1 mM DTT) to remove unbound ligand and to reduce non-specific binding. […] All reactions were performed in polystyrene 96-well plates in a final volume of 0.135 ml. […] The kinase concentration in the eluates was measured by qPCR. […]
b) An alternative method to conduct the kinase assay with the following condition and procedure: Reagent: Base Reaction buffer; 20 mM Hepes (pH 7.5), 10 mM MgCl2, 1 mM EGTA, 0.02% Brij35, 0.02 mg/ml BSA, 0.1 mM Na3VO4, 2 mM DTT, 1% DMSO.
1. Preparing indicated substrate in freshly prepared Base Reaction Buffer
2. Delivering any required cofactors to the substrate solution above
3. Delivering indicated kinase into the substrate solution and gently mix
4. Delivering compounds in DMSO into the kinase reaction mixture
5. Delivering ^33P-ATP (specific activity 0.01 μCi/μl final) into the reaction mixture to initiate the reaction.
6. Incubating kinase reaction for 120 min. at room temperature
7. Reactions are spotted onto P81 ion exchange paper (Whatman #3698-915)
8. Washing filters extensively in 0.75% Phosphoric acid. […]
c) An alternative method to conduct the kinase assay with the following condition and procedure: The assay was performed using Kinase-Glo Plus luminescence kinase assay kit (Promega). It measures kinase activity by quantitating the amount of ATP remaining in solution following a kinase reaction. The luminescent signal from the assay is correlated with the amount of ATP present and is inversely correlated with the amount of kinase activity.
The compound were diluted in 10% DMSO and 5 μl of the dilution was added to a 50 μl reaction so that the final concentration of DMSO is 1% in all of reactions. All of the enzymatic reactions were conducted at 30° C. for 40 minutes. The 50 μl reaction mixture contains 40 mM Tris, pH 7.4, 10 mM MgCl2, 0.1 mg/ml BSA, 1 mM DTT, 0.2 mg/ml substrate peptide, 10 μM ATP and ALK (Table 2.3.1). After the enzymatic reaction, 50 μl of Kinase-Glo Plus Luminescence kinase assay solution (Promega) was added to each reaction and incubate the plate for 5 minutes at room temperature. Luminescence signal was measured using a BioTek Synergy 2 microplate reader. ALK activity assays were performed in duplicate at each concentration. The luminescence data were analyzed using the computer software, Graphpad Prism. The difference between luminescence intensities in the absence of ALK (Lut) and in the presence of ALK (Luc) was defined as 100% activity (Lut−Luc). Using luminescence signal (Lu) in the presence of the compound, % activity was calculated as % activity={(Lut−Lu)/(Lut−Luc)}×100%, where Lu=the luminescence intensity in the presence of the compound (all percent activities below zero were shown zero in the table). The values of % activity versus a series of compound concentrations were then plotted using non-linear regression analysis of Sigmoidal dose-response curve generated with the equation Y=B+(T−B)/1+10^((Log EC50−X)×Hill Slope), where Y=percent activity, B=minimum percent activity, T=maximum percent activity, X=logarithm of compound and Hill Slope=slope factor or Hill coefficient. The IC50 value was determined by the concentration causing a half-maximal percent activity.

[1] = biological target: T1, BAF3-EML4-ALK stable cell line (Homo sapiens, UniProt Q9UM73); assay: BAF3-EML4-ALK cell assay (MTT cell proliferation); type: cell-based; details: 72 hours, read-out: BAF3-EML4-ALK Cell (IC50 grading)
T1 construct: fused on or other part: Q9HC35 (Echinoderm microtubule-associated protein-like 4)
T1 sequence (Q9UM73 whole entry, change not shown, the tested form may be a part): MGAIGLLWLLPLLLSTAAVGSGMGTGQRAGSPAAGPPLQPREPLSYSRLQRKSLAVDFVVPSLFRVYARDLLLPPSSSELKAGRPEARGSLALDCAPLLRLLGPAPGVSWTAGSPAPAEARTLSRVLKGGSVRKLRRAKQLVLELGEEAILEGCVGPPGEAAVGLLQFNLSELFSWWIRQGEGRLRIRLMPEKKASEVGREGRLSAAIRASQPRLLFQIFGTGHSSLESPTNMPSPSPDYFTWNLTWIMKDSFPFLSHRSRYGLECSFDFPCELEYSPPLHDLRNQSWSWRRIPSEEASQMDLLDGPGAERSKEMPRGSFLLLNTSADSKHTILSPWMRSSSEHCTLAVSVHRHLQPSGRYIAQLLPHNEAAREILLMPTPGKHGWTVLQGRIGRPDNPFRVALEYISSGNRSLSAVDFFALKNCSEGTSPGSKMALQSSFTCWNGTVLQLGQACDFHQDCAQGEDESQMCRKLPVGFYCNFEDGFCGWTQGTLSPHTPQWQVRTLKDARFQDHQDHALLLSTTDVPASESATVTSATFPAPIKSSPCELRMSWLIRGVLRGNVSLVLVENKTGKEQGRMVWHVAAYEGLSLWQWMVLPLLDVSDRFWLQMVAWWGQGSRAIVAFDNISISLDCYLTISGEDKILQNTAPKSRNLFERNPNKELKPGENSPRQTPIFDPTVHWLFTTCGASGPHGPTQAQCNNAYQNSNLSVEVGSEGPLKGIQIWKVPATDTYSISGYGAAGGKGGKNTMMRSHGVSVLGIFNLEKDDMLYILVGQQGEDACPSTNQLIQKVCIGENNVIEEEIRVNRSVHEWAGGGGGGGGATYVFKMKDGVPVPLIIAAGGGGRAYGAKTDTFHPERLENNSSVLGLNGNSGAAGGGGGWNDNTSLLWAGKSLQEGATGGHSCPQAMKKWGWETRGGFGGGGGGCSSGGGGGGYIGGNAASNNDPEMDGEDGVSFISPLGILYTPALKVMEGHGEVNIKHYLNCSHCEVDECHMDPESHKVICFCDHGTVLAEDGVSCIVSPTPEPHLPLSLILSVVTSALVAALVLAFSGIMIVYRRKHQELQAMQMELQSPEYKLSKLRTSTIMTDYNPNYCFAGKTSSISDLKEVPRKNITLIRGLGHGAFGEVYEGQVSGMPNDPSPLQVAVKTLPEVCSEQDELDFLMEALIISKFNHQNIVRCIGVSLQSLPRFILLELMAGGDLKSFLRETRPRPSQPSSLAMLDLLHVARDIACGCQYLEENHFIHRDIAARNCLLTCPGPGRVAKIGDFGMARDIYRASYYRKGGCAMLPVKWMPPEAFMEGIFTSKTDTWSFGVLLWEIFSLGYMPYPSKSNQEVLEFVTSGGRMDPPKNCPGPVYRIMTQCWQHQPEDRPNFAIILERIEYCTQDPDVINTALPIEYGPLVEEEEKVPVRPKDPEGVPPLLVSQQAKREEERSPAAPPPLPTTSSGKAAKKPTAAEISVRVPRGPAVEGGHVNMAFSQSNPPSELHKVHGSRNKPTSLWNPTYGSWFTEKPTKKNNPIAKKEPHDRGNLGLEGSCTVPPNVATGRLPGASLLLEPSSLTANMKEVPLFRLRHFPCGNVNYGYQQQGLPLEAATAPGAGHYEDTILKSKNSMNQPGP
Protocol: BAF3-EML4-ALK Cell Assay:
A method of establishing BAF3-EML4-ALK stable cell line: Transfer 5×10^6 BAF3 cells to a new tube, pellet the cells, and remove PBS by aspiration.; Resuspend the cells in 1 ml electroporation buffer, this provides 5×10^6 of cells; Transfer 200 μl of cell suspension to EP tube, add 5 ug DNA, flip and place it on ice for 10 min; Pipet the 200 μl cell suspension into 2 mm electroporation cuvette; Place the cuvette into shockpod, close the lid, and press the PULSE button; Set parameters: Expentional decay pulse: VOL=200 V; CAP=900 uF, RES=1000Ω; Transfer all cells from electroporation cuvette to 6 well plate, adding 2 ml DMEMF12 containing 5 ng/ml IL3, 24 h later, replace the medium with DMEM F12 containing 2 μg/ml blasticidin S and 5 ng/ml IL3, maintain for 3 days; change the medium with DMEM F12 containing 2 ug/ml blasticidin S and 2.5 ng/ml IL3, maintain 3 days; change the medium with DMEM F12 containing 2 ug/Ml blasticidin S, maintain to culture.
MTT Cell proliferation assay: 5×10^3 per well cell with 100 μl medium was seeded in 96-well plate; 24 hours later, 100 μl fresh medium with various concentration of compounds; After the cells were treated by compounds for 72 hours, add 20 μl MTT (5 mg/ml) into each wells; The plate is incubated at 37° C. for 4 hours; Centrifuge the plate at 800 g for 10 mins, Aspirated the medium, add 150 μl DMSO into each well. Shake plates gently for 10 mins, Measure the absorbance at 570 nm on plate reader; IR=(WC−WT)/WC.

[2] = test system: EML4-ALK-BAF3 cell line xenograft; type: in vivo; details: 40 mg/kg oral gavage once daily
Excerpt: A representative protocol for the in vivo experiment is as followed to establish the subcutaneous EML4-ALK-BAF3 cell line xenograft model in nude mice and to evaluate the in vivo therapeutic efficacy of the compounds: Animals: Male Balb/c nude mice (6˜8 weeks old) were obtained from SLAC Laboratory Animal, Shanghai, China. Animals were maintained under SPF conditions in sterile filter top cages and housed on HEPA-filtered ventilated racks. Animals received sterile rodent chow and water ad libitum. Cell line: BAF3-EML4-ALK stable cell line, the BAF3 cell which could expressed fusion oncogene EML4-ALK. S.c. Xenograft Models in Athymic Mice: Cells for implantation into athymic mice were harvested and pelleted by centrifugation at 1200 r/min for 5 min. Cells were washed once and resuspended in sterile PBS buffer with 5×10^6 in 200 μl. Then cells were implanted s.c. into the right scapular region of each mouse and allowed to grow to 200˜300 mm^3 before the administration of compound. Preparation of the Dose Formulation: each compound was suspensioned in 0.5% CMC-Na. Randomization: When tumor volumes approach 200˜300 mm^3, the mice will be randomized into 5 groups according to the tumor volume. The day will be denoted as D1 and the treatments will be started at this day. Administered: Dose will be administered with oral gavage needle once daily for number of days. Treatment of compounds administered in 0.5% CMC-Na by p.o. gavage was initiated when tumors were 200˜300 mm^3 in volume. Observations: After inoculation, the animals will be checked daily for morbidity and mortality. At the time of routine monitoring, the animals will be checked for any effects of tumor growth and treatments on normal behavior such as mobility, body weight gain/loss (body weights will be measured twice weekly or every other day), eye/hair matting and any other abnormal effect. Death and observed clinical signs will be recorded on the basis of the numbers of animals within each subset. Tumor Size Measurements: Tumor volume was determined by measurement with electronic vernier calipers every 3 days and tumor volume was calculated as the product of its length×width^2×0.5. Effect studies: Tumor volume was expressed on indicated days as the mean tumor volume ±SD. […] Significant differences between the treated versus the control groups (p<0.05) were determined using t test. At study endpoint, after blood collection, mice were practiced euthanasia by cervical dislocation, the tumor tissue was collected first, then abdominal cavity was cut open, liver and spleen were excised, then weight after the gallblader was removed respectively. Organ weight and Organ/body weight ratios between the treated versus the control groups were compared. Ratios was calculated as follows: Ratios=Organ weight/(body weight-tumor weight). Both organ weight and Organ/body weight ratios were also expressed as mean±SD, and significant differences between the treated versus the control groups (p<0.05) were determined using t test.

[3] = ALK kinase assay, read-out: ALK (IC50 grading)

Sequence of ALK kinase (Q9UM73 19-1620): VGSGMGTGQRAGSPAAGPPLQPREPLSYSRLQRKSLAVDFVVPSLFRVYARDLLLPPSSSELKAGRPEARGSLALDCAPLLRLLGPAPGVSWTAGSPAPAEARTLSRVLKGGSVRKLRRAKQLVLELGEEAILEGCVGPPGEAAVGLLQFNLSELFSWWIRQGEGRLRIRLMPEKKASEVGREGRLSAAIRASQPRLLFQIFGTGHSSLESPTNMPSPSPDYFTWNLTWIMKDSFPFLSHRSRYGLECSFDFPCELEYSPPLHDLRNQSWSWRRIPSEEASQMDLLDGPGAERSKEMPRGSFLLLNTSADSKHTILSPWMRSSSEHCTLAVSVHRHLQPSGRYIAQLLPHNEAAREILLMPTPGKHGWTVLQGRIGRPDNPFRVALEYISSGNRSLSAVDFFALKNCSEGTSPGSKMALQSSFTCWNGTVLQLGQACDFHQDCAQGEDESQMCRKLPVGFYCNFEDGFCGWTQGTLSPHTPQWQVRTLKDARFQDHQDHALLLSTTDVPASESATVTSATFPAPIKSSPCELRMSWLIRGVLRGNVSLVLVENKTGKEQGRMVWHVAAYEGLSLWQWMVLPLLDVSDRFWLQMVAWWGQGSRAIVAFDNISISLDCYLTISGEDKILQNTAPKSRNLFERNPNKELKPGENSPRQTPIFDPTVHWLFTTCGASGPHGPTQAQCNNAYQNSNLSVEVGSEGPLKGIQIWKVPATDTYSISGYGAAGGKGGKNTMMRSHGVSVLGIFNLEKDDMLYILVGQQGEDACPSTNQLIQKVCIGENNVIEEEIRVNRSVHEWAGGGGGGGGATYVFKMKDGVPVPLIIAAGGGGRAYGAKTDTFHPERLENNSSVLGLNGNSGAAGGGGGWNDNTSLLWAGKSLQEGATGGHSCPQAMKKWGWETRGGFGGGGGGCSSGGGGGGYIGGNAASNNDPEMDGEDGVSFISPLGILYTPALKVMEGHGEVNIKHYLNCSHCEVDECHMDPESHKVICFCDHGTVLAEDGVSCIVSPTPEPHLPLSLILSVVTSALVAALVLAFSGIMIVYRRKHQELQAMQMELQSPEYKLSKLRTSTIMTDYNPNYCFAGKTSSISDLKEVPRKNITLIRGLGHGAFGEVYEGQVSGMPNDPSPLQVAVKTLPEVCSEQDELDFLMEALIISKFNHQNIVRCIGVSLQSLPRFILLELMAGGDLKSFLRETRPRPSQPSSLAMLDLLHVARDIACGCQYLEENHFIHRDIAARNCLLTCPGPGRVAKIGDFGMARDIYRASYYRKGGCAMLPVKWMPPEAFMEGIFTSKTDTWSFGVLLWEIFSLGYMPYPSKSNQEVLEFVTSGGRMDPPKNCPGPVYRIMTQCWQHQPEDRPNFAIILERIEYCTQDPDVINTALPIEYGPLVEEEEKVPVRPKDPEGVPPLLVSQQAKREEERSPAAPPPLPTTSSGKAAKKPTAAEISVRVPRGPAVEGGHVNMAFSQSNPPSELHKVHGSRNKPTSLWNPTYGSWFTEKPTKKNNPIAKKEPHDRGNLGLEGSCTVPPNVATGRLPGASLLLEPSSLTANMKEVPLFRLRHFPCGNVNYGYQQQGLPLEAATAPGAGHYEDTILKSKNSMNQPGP

| Structure (SMILES) | IC50 (ALK kinase; [3]) | GI50 [1] | liver weight at the end of the study ([2]; control group 1.523) | Tumor growth inhibition (TGI, %) ([2]; Table B, day 4) | Tumor growth inhibition (TGI, %) ([2]; Table B, day 7) | Tumor growth inhibition (TGI, %) ([2]; Table B, day 9) | IC50 (ALK kinase; read-out: IC50 in the ALK kinase assay) | Tumor growth inhibition (TGI, %) ([2]; Table C, day 2) | Tumor growth inhibition (TGI, %) ([2]; Table C, day 5) | Tumor growth inhibition (TGI, %) ([2]; Table C, day 8) | Tumor growth inhibition (TGI, %) ([2]; Table C, day 11) | Tumor growth inhibition (TGI, %) ([2]; Table C, day 14) |
| --- | --- | --- | --- | --- | --- | --- | --- | --- | --- | --- | --- | --- |
| CC(=O)Nc1ncc(-c2cnn(C3CCNCC3)c2)cc1O[C@H](C)c1c(Cl)ccc(F)c1Cl [Compound 18, (R)—N-(3-(1-(2,6-dichloro-3-fluorophenyl)ethoxy)-5-(1-(piperidin-4-yl)-1H-pyrazol-4-yl)pyridin-2-yl)acetamide] | ≤ 100 nM | ≤ 100 nM | 1.318 gram | 24.11% | 38.91% | 39.08% | – | – | – | – | – | – |
| [2H]C([2H])([2H])N1CCC(n2cc(-c3cnc(N)c(O[C@H](C)c4c(Cl)ccc(F)c4Cl)c3)cn2)CC1 [Compound 20, (R)-3-(1-(2,6-dichloro-3-fluorophenyl)ethoxy)-5-(1-(1-d3-methylpiperidin-4-yl)-1H-pyrazol-4-yl)pyridin-2-amine] | ≤ 100 nM | ≤ 100 nM | – | – | – | – | 2.6 nM | 29.80% | 58.20% | 71.73% | 90.29% | 92.09% |
